From ChEMBL document CHEMBL1201862, “PubChem BioAssay data set” (2004)
Active and inactive are the calls of the source.

Key:
[1] = target: Steroidogenic factor 1 (Homo sapiens, UniProt Q13285); test: Counterscreen for inverse agonists of the liver receptor homolog-1 (LRH-1; NR5A2): Luminescence-based cell-based high throughput dose response assay to identify inverse agonists of the Steroidogenic Factor 1 Nuclear Receptor (SF1; NR5A1).; type: functional
[2] = target: Nuclear receptor subfamily 5 group A member 2 (Homo sapiens, UniProt O00482); type: functional, cell-based;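 further: HEK293T cells transfected with LRH-1 and a StAR promoter luciferase reporter; potency for inhibitors that lower LRH-1 driven reporter light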
Nuclear receptor subfamily 5 group A member 2, sequence (O00482 whole entry): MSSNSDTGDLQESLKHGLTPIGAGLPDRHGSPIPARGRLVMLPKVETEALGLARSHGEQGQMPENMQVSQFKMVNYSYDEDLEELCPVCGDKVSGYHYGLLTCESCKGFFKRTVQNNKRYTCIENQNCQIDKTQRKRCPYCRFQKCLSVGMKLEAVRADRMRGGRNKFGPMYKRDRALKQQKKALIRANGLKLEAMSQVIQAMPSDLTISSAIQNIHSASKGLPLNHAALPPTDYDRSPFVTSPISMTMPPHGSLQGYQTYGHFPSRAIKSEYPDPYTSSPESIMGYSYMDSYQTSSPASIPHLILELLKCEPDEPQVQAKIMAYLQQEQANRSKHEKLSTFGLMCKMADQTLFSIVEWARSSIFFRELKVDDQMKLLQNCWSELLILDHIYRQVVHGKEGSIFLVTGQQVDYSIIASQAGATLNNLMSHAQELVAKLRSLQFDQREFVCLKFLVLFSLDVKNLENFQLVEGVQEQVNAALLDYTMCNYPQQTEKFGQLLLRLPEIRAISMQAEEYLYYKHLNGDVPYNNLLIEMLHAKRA

[3] = StAR promoter reporter inhibition counter-screen, dose response, counter-screen for LRH-1 inverse agonist project, cell-based, luminescence, luciferase reporter (AID 651969); type: functional
[4] = target: T1, Endoribonuclease toxin MazF (Escherichia coli K-12, UniProt P0AE70); test: fluorescent RNA oligo signal without MazF, dose response, counter-screen for MazEF activator project, biochemical, fluorescence, single-stranded RNase substrate (AID 588502); type: functional
T1 sequence (P0AE70 whole entry): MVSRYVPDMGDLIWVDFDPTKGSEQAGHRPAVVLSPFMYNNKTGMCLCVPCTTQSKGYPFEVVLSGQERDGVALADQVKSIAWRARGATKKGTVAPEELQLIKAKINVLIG

[5] = target: T1, Endoribonuclease toxin MazF; test: MazF toxin RNase activators, dose response, biochemical, fluorescence, single-stranded RNA substrate, uHTS hits (AID 588481); type: functional
[6] = target: Large T antigen (Simian virus 40, UniProt P03070); type: functional, Betapolyomavirus macacae;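 further: Confirmatory-stage PubChem screen for compounds that inhibit SV40 T antigen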
Large T antigen, sequence (P03070 whole entry): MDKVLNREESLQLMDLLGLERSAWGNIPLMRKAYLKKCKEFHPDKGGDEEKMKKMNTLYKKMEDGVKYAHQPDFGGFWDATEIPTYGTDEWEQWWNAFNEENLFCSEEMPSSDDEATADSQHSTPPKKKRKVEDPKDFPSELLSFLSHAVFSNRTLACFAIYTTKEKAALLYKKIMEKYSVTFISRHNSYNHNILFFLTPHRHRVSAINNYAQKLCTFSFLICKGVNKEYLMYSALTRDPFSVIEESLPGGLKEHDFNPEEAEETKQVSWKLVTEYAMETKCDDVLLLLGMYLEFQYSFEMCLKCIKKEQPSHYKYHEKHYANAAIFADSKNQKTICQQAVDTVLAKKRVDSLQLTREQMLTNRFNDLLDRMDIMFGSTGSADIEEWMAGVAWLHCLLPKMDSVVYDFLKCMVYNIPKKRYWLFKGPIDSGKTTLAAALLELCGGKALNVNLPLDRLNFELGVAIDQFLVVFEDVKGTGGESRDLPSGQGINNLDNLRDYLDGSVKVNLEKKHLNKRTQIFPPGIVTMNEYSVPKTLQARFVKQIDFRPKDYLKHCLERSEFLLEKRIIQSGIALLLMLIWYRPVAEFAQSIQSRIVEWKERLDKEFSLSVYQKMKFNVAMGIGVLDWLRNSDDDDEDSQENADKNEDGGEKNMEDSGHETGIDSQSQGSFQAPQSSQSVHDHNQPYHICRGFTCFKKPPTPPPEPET

[7] = target: T2, Corticotropin-releasing factor receptor 2/Corticotropin-releasing factor-binding protein (Homo sapiens, UniProt P24387+Q13324); test: activators of CRF receptor 2 with binding protein – uHTS hits, confirmation (AID 602473); type: functional; settings: read-out: EC50_Mean
T2 sequence (Q13324 whole entry): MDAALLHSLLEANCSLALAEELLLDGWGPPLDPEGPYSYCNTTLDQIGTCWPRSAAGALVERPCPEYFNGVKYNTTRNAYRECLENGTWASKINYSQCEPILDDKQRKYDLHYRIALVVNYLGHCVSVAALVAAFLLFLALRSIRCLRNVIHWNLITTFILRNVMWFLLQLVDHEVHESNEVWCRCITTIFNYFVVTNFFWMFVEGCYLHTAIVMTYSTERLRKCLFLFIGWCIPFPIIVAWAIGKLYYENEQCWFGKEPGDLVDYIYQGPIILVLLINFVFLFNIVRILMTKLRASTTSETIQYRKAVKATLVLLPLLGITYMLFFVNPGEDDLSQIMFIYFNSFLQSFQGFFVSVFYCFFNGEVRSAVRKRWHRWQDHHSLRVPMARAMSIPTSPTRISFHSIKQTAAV
T2 sequence (P24387 whole entry): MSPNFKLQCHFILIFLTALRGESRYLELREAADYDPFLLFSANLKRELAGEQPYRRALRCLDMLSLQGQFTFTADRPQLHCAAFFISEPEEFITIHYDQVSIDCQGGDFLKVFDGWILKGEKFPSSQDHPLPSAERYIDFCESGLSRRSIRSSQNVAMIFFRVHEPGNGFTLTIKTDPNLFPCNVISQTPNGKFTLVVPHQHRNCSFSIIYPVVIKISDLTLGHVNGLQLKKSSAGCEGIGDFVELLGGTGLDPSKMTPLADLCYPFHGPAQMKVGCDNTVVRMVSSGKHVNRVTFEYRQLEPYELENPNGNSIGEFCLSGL

[8] = HEK293 cell cytotoxicity, dose response, cytotoxicity control, plate reader, cherry-picked samples (AID 743446); type: functional, cell-based
[9] = MC4R antagonists, dose response, counter-screen for LGR2 antagonist project, cell-based, plate reader, cherry pick (AID 743444); type: functional;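 further: transfected HEK 293 cells stimulated with alpha-MSH peptide; potency of inhibitors of the alpha-MSH evoked signal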
[10] = A549 cell cytotoxicity, dose response, cytotoxicity control, plate reader, cherry-pick, antagonist series (AID 743412); type: functional, cell-based
[11] = LGR2 antagonists, dose response, cell-based, HEK293, CRE-luciferase reporter, cherry pick, set 2 (AID 743343); type: functional;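 further: transfected cells were stimulated with diluted bursicon conditioned medium after compound addition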
[12] = test system: HEK293; test: inhibitors of LMP1-driven NF-kB reporter, dose response, cell-based, HEK293, luciferase, cherry-pick (AID 588343); type: functional; settings: Homo sapiens
[13] = NIH-3T3 fibroblast cytotoxicity, dose response, cytotoxicity control, cell-based, fluorescence, Alamar Blue, secondary assay (AID 2327); type: functional;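 further: NIH-3T3 mouse fibroblasts cultured with fluconazole at 8 µg/mL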
[14] = target: FAD-linked sulfhydryl oxidase ALR (Homo sapiens, UniProt P55789); test: inhibitors of human ALR sulfhydryl oxidase, dose response, biochemical, H2O2 detection, luminescence, cherry-pick (AID 493248)
FAD-linked sulfhydryl oxidase ALR, sequence (P55789 whole entry): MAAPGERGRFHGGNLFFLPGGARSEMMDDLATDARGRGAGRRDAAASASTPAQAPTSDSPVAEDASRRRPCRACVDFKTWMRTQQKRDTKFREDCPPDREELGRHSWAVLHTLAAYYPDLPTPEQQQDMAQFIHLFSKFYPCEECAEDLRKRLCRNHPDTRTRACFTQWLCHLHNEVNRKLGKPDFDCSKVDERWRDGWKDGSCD

[15] = target: Genome polyprotein (dengue virus type 2, UniProt P29990); test: Dengue-2 NS5 methyltransferase inhibitors, primary screen, biochemical, confirmation dose response (AID 588689); type: functional
Genome polyprotein, sequence (P29990 2492-3391 limits assumed): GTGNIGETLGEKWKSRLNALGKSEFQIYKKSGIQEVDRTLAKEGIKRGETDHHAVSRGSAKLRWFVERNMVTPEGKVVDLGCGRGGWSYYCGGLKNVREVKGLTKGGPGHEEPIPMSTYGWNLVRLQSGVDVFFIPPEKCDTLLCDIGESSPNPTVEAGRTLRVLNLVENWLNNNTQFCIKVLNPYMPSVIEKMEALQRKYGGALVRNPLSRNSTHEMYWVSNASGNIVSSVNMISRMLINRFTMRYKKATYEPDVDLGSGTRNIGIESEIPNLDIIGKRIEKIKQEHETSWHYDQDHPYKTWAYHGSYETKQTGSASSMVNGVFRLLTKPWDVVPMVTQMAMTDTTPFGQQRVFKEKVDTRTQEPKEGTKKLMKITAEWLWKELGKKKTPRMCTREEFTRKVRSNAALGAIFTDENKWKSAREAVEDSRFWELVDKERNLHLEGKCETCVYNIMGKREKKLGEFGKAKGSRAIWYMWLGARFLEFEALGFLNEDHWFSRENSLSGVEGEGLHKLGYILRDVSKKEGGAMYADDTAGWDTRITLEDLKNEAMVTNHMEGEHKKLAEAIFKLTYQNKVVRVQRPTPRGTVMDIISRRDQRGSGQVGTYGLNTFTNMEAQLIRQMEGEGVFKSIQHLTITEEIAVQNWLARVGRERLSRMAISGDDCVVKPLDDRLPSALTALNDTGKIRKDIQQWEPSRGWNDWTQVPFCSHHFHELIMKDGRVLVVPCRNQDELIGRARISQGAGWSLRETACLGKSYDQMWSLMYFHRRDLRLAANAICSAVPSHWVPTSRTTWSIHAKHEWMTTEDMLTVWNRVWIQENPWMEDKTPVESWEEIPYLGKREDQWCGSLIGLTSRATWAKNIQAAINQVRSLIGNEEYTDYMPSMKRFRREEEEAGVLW

[16] = target: T3, Protein RecA (Mycobacterium tuberculosis, UniProt P9WHJ3); test: Fluorescence Cell-Free Homogeneous Dose Retest to Identify Inhibitors of RecA-Intein Splicing Activity. [Related pubchem assays (depositor defined):AID2097, AID2223, AID489010, AID492950]; type: functional
T3 sequence (P9WHJ3 whole entry): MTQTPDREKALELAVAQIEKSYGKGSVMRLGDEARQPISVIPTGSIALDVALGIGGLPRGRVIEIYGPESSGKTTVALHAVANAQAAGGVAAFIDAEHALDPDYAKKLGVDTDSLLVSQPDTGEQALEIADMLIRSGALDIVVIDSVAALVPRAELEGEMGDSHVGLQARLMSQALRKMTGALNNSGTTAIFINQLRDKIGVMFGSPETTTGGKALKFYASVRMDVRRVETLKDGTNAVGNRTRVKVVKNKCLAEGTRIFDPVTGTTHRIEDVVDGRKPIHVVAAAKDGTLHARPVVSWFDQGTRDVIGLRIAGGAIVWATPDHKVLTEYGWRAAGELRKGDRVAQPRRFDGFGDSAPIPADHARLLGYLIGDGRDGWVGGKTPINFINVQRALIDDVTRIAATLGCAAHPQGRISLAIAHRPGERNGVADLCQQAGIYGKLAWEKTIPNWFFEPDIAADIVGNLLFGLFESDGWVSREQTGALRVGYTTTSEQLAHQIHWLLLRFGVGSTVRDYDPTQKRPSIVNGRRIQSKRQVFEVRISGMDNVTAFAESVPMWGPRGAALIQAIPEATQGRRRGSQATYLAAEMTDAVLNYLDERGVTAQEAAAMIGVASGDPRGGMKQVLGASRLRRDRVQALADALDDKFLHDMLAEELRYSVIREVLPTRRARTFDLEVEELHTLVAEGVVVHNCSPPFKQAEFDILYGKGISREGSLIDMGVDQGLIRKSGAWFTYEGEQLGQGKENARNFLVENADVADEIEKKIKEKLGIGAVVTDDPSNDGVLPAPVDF

[17] = target: T4, Replicative DNA helicase DnaB (Mycobacterium tuberculosis, UniProt P9WMR3); test: DnaB intein splicing inhibitors, dose response, biochemical, cell-free fluorescence (AID 449749); type: functional
T4 sequence (P9WMR3 whole entry): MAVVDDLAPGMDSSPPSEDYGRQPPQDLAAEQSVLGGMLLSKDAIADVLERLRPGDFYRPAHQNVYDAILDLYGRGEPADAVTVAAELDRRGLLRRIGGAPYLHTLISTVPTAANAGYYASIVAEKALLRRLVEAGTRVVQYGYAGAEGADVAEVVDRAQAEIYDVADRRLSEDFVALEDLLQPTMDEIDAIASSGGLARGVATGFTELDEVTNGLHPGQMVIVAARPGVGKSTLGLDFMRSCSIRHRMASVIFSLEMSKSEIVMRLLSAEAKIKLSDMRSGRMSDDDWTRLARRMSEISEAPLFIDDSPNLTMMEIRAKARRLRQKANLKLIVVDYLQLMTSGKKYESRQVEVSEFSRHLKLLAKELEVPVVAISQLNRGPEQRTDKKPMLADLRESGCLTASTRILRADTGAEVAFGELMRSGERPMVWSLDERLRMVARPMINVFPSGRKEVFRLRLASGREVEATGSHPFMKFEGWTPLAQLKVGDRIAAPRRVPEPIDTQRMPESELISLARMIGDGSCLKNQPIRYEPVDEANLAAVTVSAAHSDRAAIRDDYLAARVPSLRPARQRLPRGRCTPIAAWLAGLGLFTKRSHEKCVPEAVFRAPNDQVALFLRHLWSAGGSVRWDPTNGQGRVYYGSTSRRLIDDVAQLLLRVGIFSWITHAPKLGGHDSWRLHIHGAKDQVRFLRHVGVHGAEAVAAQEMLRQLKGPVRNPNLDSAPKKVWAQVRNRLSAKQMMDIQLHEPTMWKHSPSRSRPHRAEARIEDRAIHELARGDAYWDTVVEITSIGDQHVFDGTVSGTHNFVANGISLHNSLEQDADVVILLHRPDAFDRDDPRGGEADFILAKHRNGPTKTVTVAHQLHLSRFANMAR

[18] = target: Peroxisome proliferator-activated receptor gamma/Nuclear receptor coactivator 1 (Homo sapiens, UniProt P37231); type: functional;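 further: agonist potency as compounds enhance coactivator SRC-1 recruitment to PPARgamma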
[19] = target: Peroxisome proliferator-activated receptor gamma/Nuclear receptor coactivator 3 (Homo sapiens, UniProt P37231); type: functional;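 further: agonist potency for raising coactivator recruitment to the receptor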
[20] = target: Peroxisome proliferator-activated receptor gamma/Nuclear receptor coactivator 2 (Homo sapiens, UniProt P37231); type: functional;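 further: agonist potency for raising coactivator recruitment to the receptor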
Peroxisome proliferator-activated receptor gamma/Nuclear receptor coactivator 2, sequence (P37231 whole entry): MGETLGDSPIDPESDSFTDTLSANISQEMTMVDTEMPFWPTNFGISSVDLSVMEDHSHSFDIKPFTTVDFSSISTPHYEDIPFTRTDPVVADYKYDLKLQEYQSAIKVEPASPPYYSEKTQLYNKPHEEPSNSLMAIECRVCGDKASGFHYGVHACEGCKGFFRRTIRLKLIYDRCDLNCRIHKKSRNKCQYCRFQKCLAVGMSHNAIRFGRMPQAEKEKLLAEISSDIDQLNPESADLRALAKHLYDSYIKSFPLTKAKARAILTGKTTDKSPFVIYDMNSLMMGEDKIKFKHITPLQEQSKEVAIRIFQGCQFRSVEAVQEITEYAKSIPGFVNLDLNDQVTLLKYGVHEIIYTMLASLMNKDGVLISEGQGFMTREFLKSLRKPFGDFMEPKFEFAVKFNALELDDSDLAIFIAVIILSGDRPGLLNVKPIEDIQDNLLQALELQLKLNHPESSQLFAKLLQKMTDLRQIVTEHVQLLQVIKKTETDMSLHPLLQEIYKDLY
Peroxisome proliferator-activated receptor gamma/Nuclear receptor coactivator 2, sequence (Q15596 whole entry, further chain): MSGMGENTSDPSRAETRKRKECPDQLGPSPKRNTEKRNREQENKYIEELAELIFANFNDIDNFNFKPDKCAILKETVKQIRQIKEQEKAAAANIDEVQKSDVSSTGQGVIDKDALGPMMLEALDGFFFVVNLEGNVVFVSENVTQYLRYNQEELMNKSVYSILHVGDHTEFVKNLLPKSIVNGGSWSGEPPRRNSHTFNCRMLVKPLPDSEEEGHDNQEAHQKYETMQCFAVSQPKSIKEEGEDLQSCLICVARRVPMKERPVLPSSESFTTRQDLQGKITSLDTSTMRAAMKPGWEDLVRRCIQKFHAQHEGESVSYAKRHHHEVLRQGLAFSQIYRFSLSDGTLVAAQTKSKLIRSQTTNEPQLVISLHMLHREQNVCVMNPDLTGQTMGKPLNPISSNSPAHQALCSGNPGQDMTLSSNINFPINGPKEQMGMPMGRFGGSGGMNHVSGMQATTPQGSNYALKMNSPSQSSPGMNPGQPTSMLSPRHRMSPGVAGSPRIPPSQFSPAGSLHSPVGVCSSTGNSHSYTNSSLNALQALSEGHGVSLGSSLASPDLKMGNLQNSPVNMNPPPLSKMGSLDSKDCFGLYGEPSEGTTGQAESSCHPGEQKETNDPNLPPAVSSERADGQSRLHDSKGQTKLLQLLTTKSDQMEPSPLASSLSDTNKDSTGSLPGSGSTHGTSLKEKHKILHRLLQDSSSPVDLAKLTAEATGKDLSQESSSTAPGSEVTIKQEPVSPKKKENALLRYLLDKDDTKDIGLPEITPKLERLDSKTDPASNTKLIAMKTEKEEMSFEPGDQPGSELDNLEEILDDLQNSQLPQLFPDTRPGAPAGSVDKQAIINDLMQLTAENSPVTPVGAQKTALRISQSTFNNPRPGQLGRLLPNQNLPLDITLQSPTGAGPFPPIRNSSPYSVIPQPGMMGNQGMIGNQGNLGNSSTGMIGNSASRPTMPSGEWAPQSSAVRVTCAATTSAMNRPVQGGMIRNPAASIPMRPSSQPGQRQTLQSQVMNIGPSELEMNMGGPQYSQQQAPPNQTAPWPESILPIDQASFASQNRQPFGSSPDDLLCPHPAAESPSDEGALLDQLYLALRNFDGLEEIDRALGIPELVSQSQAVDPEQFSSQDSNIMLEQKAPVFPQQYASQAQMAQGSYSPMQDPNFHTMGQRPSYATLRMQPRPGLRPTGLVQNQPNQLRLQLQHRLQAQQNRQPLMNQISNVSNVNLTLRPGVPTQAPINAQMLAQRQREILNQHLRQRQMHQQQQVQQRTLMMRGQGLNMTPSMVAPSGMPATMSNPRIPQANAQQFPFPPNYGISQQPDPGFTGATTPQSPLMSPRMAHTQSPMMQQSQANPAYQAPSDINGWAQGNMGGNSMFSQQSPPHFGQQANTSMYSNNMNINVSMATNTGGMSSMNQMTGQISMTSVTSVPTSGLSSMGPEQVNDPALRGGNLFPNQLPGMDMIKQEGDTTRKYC

Steroidogenic factor 1, sequence (Q13285 whole entry): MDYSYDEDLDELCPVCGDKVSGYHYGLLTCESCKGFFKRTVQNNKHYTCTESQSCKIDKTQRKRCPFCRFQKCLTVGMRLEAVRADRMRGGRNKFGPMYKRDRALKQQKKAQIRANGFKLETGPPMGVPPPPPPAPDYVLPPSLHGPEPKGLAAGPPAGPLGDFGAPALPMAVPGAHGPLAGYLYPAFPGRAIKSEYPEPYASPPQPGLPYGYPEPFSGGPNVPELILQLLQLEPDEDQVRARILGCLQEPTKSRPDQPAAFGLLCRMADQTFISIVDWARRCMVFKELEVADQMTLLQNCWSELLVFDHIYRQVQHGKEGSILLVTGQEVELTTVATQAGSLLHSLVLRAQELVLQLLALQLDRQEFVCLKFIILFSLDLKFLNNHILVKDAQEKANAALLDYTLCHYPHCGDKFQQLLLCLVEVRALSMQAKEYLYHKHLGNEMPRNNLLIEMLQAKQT

Cc1ccc(C)c(NC(=O)CSc2nc(O)c3c[nH]nc3n2)c1
IC50 [1]: 6.65 µM (active)
IC50 [2]: 29 µM (inactive)
IC50 [3]: 35.9 µM (inactive)

CCn1c(/C=C/c2ccc(O)c(O)c2)nc2ccccc2c1=O
EC50 [4]: 88.4 µM (inactive)
EC50 [5]: > 99 µM (inactive)
IC50 [6]: 35.6 µM (active)

CCCCC(=O)Nc1ccc(C(=O)Nc2ccc(OC)cc2[N+](=O)[O-])cc1
EC50 [4]: > 99 µM (inactive)
EC50 [5]: > 99 µM (inactive)
EC50 [7]: 7.74 µM (active)

Cc1csc(NC(=O)c2ccc(N3CCCC3=O)cc2)n1
AC50 [8]: > 52 µM (inactive)
AC50 [9]: 1.93 µM (active)
AC50 [10]: > 52 µM (inactive)
AC50 [11]: 2.05 µM (active)
AC50 [12]: 1.52 µM (active)

CC(=O)Nc1ccc(NC(=O)CSc2ccc(-c3ccc(-n4ccnc4)cc3)nn2)cc1
IC50 [1]: 35.9 µM (inactive)
IC50 [2]: 35.9 µM (inactive)
IC50 [3]: 35.9 µM (inactive)

O=C(NNc1ccc(O)cc1)c1ccc(Br)cc1
EC50 [13]: 28.9 µM (active)
AC50 [14]: 0.096 µM (active)
IC50 [15]: > 100 µM (active)

CC1=NN(Cc2ccccc2)C(=O)C1C(c1ccc(Cl)cc1)C(C#N)C#N (configuration not stated)
EC50 [16]: 2.5 µM (active)
IC50 [15]: 55.2 µM (active)
AC50 [17]: 5.34 µM (active)

CC(=O)Nc1ccc(NC(=O)CSc2nnc(NC(=O)C3CC3)s2)cc1
IC50 [1]: 8.29 µM (active)
IC50 [2]: 9.26 µM (active)
IC50 [3]: 35.9 µM (inactive)

O=C(CSc1ncnc2c1nnn2Cc1ccccc1F)N1CCN(c2ccccc2)CC1
EC50 [18]: > 79.4 µM (not active)
EC50 [16]: 5.75 µM (active)
EC50 [19]: > 79.4 µM (not active)
AC50 [17]: 3.65 µM (active)
EC50 [20]: > 79.4 µM (not active)

O=C(O)[C@H](Cc1ccccc1)N1C(=O)c2c(Cl)c(Cl)c(Cl)c(Cl)c2C1=O
IC50 [15]: 23.9 µM (active)
